Measured values published in US10857230B2, “Co-therapy comprising a small molecule CSF-1R inhibitor and an agonistic antibody that specifically binds CD40 for the treatment of cancer” (Janssen Biotech, Inc., priority 2017, dated 2020).

Test system: MC38 murine colon carcinoma cells
Experiment: MC38 Tumor Size Assay (Example 1)
Type: in vivo, C57BL/6 mice
Conditions: for Median TTE: 61-day study
Protocol: The mice were housed on irradiated Enrich-o'Cobs™ bedding in static microisolators on a 12-hour light cycle at 20-22° C. (68-72° F.) and 40-60% humidity.
MC38 murine colon carcinoma cells were grown in Dulbecco's Modified Eagle Medium (DMEM) supplemented with 10% fetal bovine serum and 2 mM glutamine, 100 units/mL penicillin G sodium, 100 μg/mL streptomycin sulfate, and 25 μg/mL gentamicin.
The MC38 colon cells used for implantation were harvested during log phase growth and re-suspended in cold PBS. Mice were anesthetized with isoflurane prior to implantation. Each mouse was injected subcutaneously in the right flank with 1×10^6 tumor cells (0.1 mL cell suspension) and tumors were monitored as their volumes approached the target range of 350 to 500 mm^3. […] Tumors were measured with calipers twice weekly in two dimensions. Tumor size was calculated using the formula:
where w=width and l=length, in mm, of a tumor. Tumor weight was estimated with the assumption that 1 mg is equivalent to 1 mm^3 of tumor volume.
The compound of formula (I) was stored at room temperature and antibody stock solutions were stored at 4° C. upon receipt.
Each week of dosing, the compound of formula (I) was dissolved in 0.5% HPMC to yield a 1.0 mg/mL dosing solution. The dosing solution was stored at 4° C., protected from light. The rat IgG2a isotype and anti-CSF1R dosing solutions were prepared fresh each day by diluting aliquots of the stock solutions with PBS to yield 1.0 mg/mL dosing solutions. The dosing solutions were stored at 4° C., protected from light. The anti-mCD40 dosing solution was prepared fresh each day by diluting an aliquot of the stock solution with PBS to yield a 0.1 mg/mL dosing solution. The dosing solution was stored at 4° C., protected from light.
On Day 1 of the study, fourteen groups of C57BL/6 mice (n=10) began dosing according to the following protocol.
The vehicle (0.5% HPMC) and the compound of formula (I) were administered orally (p.o.). The rat IgG2a isotype control, anti-mCD40, and anti-CSF1R were administered intraperitoneally (i.p.). Rat IgG2a(2A3) was administered at […]. The compound of formula (I) and anti-CSF1R were administered at 10 mg/kg, and anti-mCD40 was administered at 1 mg/kg. The dosing volume for all animals was 10 mL/kg (0.2 mL per 20-g mouse) and was adjusted for body weight.
Tumors were measured using calipers twice per week. […] TGI (tumor growth inhibition) analysis was performed on Day 15. The MTV (n), the median tumor volume for the number of animals, n, on Day 15, was determined for each group. Percent tumor growth inhibition (% TGI) was defined as the difference between the MTV of the designated control group (Group 1) and the MTV of the drug-treated group, expressed as a percentage of the MTV of the control group: […]
The data set for TGI analysis included all animals in a group, except those that died due to treatment-related or non-treatment related causes
Animals were monitored individually for tumor growth until Day 61. The study protocol specified a tumor growth delay assay based on the median time-to-endpoint (TTE) in a treated group versus the control group. Each animal was marked for tumor progression (TP) when its tumor reached the 1500 mm^3 volume endpoint. The TTE for each mouse was calculated with the following equation: […]
where b is the intercept and m is the slope of the line obtained by linear regression of a log-transformed tumor growth data set. The data set comprised the first observation that exceeded the study endpoint volume and the three consecutive observations that immediately preceded the attainment of the endpoint volume. […] In instances in which the log-transformed calculated TTE preceded the day prior to reaching endpoint or exceeded the day of reaching tumor volume endpoint, a linear interpolation was performed to approximate TTE.

[1] = Groups 3-7: all dosing from Day 1 (antibodies i.p. Days 1, 5, 9, formula (I) p.o. bid×14), formula (I) and anti-CSF1R 10 mg/kg, anti-mCD40 1 mg/kg, vs rat IgG2a control Group 1
[2] = Groups 9, 11, 13, 14: formula (I) 10 mg/kg p.o. bid×14 beginning Day 4 or anti-CSF1R 10 mg/kg i.p. Days 4, 8, 12, in combinations anti-mCD40 1 mg/kg i.p. Days 1, 5, 9, vs rat IgG2a control Group 1
[3] = number of animals of n=10, Groups 3-7: all dosing from Day 1 (antibodies i.p. Days 1, 5, 9, formula (I) p.o. bid×14), formula (I) and anti-CSF1R 10 mg/kg, anti-mCD40 1 mg/kg
[4] = number of animals of n=10, Groups 9, 11, 13, 14: formula (I) 10 mg/kg p.o. bid×14 beginning Day 4 or anti-CSF1R 10 mg/kg i.p. Days 4, 8, 12, in combinations anti-mCD40 1 mg/kg i.p. Days 1, 5, 9

CC1(C)CC=C(c2nc(C3CC(C)(C)OC(C)(C)C3)ccc2NC(=O)c2nc(C#N)c[nH]2)CC1 [compound of formula (I), 4-cyano-N-(2-(4,4-dimethylcyclohex-1-en-1-yl)-6-(2,2,6,6-tetramethyltetrahydro-2H-pyran-4-yl)pyridin-3-yl)-1H-imidazole-2-carboxamide]
% TGI (Day 15, vs rat IgG2a control Group 1, Groups 3-7: all dosing from Day 1 (antibodies i.p. Days 1, 5, 9, formula (I) p.o. bid×14), formula (I) and anti-CSF1R 10 mg/kg, anti-mCD40 1 mg/kg): 21%
% TGI (Day 15, vs rat IgG2a control Group 1, Groups 9, 11, 13, 14: formula (I) 10 mg/kg p.o. bid×14 beginning Day 4 or anti-CSF1R 10 mg/kg i.p. Days 4, 8, 12, in combinations anti-mCD40 1 mg/kg i.p. Days 1, 5, 9): −24%
Median TTE (Groups 3-7: all dosing from Day 1 (antibodies i.p. Days 1, 5, 9, formula (I) p.o. bid×14), formula (I) and anti-CSF1R 10 mg/kg, anti-mCD40 1 mg/kg, 1500 mm^3 endpoint): 17.5 days
% TGD [1]: 17%
T − C [1]: 2.5 days
Median TTE (Groups 9, 11, 13, 14: formula (I) 10 mg/kg p.o. bid×14 beginning Day 4 or anti-CSF1R 10 mg/kg i.p. Days 4, 8, 12, in combinations anti-mCD40 1 mg/kg i.p. Days 1, 5, 9, 1500 mm^3 endpoint): 11.4 days
% TGD [2]: −24%
T − C [2]: -3.6 days
Regression CR [3]: 0
Regression PR [3]: 0
Regression CR [4]: 0
Regression PR [4]: 0
Regression TFS (tumor-free survivors Day 61, of n=10, Groups 3-7: all dosing from Day 1 (antibodies i.p. Days 1, 5, 9, formula (I) p.o. bid×14), formula (I) and anti-CSF1R 10 mg/kg, anti-mCD40 1 mg/kg): 0
Regression TFS (tumor-free survivors Day 61, of n=10, Groups 9, 11, 13, 14: formula (I) 10 mg/kg p.o. bid×14 beginning Day 4 or anti-CSF1R 10 mg/kg i.p. Days 4, 8, 12, in combinations anti-mCD40 1 mg/kg i.p. Days 1, 5, 9): 0
